Test results: ChEMBL document CHEMBL3797052 (Eur J Med Chem, 2016)

test system: not listed separately; experiment: Antiproliferative activity against human RXF393 cells assessed as cell growth at 10^-4 M after 48 hrs by sulforhodamine B assay; format: functional; settings: RXF 393, 48 h, read-out: Activity

Row | Compound | growth at 100 µM
1 | CNC(=O)c1cc(Oc2ccc3nc(NC(=O)c4cc(C(F)(F)F)cc(C(F)(F)F)c4)sc3c2)ccn1 | -78%

test system: not listed separately; experiment: Antiproliferative activity against human DU145 cells assessed as cell growth at 10^-6 M after 48 hrs by sulforhodamine B assay; format: functional; settings: DU-145, 48 h, read-out: Activity

Row | Compound | growth at 1 µM
2 | CNC(=O)c1cc(Oc2ccc3nc(NC(=O)c4cc(C(F)(F)F)cc(C(F)(F)F)c4)sc3c2)ccn1 | 94%

test system: NCI-H522; experiment: Antiproliferative activity against human NCI-H522 cells assessed as cell growth at 10^-4 M after 48 hrs by sulforhodamine B assay; format: functional; settings: NCI-H522, 48 h, read-out: Activity

Row | Compound | growth at 100 µM
3 | CNC(=O)c1cc(Oc2ccc3nc(NC(=O)c4cc(C(F)(F)F)cc(C(F)(F)F)c4)sc3c2)ccn1 | -61%

test system: not listed separately; experiment: Antiproliferative activity against human PC3 cells assessed as cell growth at 10^-8 M after 48 hrs by sulforhodamine B assay; format: functional; settings: PC-3, 48 h, read-out: Activity

Row | Compound | growth at 0.01 µM
4 | CNC(=O)c1cc(Oc2ccc3nc(NC(=O)c4cc(C(F)(F)F)cc(C(F)(F)F)c4)sc3c2)ccn1 | 96%

test system: not listed separately; experiment: Antiproliferative activity against human Hs 578T cells assessed as cell growth at 10^-7 M after 48 hrs by sulforhodamine B assay; format: functional; settings: read-out: Activity

Row | Compound | growth at 0.1 µM
5 | CNC(=O)c1cc(Oc2ccc3nc(NC(=O)c4cc(C(F)(F)F)cc(C(F)(F)F)c4)sc3c2)ccn1 | 93%

test system: Malme-3M; experiment: Antiproliferative activity against human MALME-3M cells assessed as cell growth at 10^-8 M after 48 hrs by sulforhodamine B assay; format: functional; settings: read-out: Activity

Row | Compound | growth at 0.01 µM
6 | CNC(=O)c1cc(Oc2ccc3nc(NC(=O)c4cc(C(F)(F)F)cc(C(F)(F)F)c4)sc3c2)ccn1 | 94%

test system: SK-MEL-5; experiment: Antiproliferative activity against human SK-MEL-5 cells assessed as cell growth at 10^-8 M after 48 hrs by sulforhodamine B assay; format: functional; settings: SK-MEL-5, 48 h, read-out: Activity

Row | Compound | growth at 0.01 µM
7 | CNC(=O)c1cc(Oc2ccc3nc(NC(=O)c4cc(C(F)(F)F)cc(C(F)(F)F)c4)sc3c2)ccn1 | 95%

test system: ACHN; experiment: Antiproliferative activity against human ACHN cells assessed as growth inhibition after 48 hrs by sulforhodamine B assay; format: functional; settings: not given

Row | Compound | GI50 | LC50 | TGI
8 | CNC(=O)c1cc(Oc2ccc3nc(NC(=O)c4cc(C(F)(F)F)cc(C(F)(F)F)c4)sc3c2)ccn1 | 3.26 µM | 43.2 µM | 11.8 µM

test system: MDA-MB-468; experiment: Antiproliferative activity against human MDA-MB-468 cells assessed as cell growth at 10^-4 M after 48 hrs by sulforhodamine B assay; format: functional; settings: MDA-MB-468, 48 h, read-out: Activity

Row | Compound | growth at 100 µM
9 | CNC(=O)c1cc(Oc2ccc3nc(NC(=O)c4cc(C(F)(F)F)cc(C(F)(F)F)c4)sc3c2)ccn1 | -30%

test system: EKVX; experiment: Antiproliferative activity against human EKVX cells assessed as cell growth at 10^-8 M after 48 hrs by sulforhodamine B assay; format: functional; settings: read-out: Activity

Row | Compound | growth at 0.01 µM
10 | CNC(=O)c1cc(Oc2ccc3nc(NC(=O)c4cc(C(F)(F)F)cc(C(F)(F)F)c4)sc3c2)ccn1 | 94%

test system: not listed separately; experiment: Antiproliferative activity against human MOLT4 cells assessed as cell growth at 10^-7 M after 48 hrs by sulforhodamine B assay; format: functional; settings: MOLT-4, 48 h, read-out: Activity

Row | Compound | growth at 0.1 µM
11 | CNC(=O)c1cc(Oc2ccc3nc(NC(=O)c4cc(C(F)(F)F)cc(C(F)(F)F)c4)sc3c2)ccn1 | 87%

test system: EKVX; experiment: Antiproliferative activity against human EKVX cells assessed as cell growth at 10^-6 M after 48 hrs by sulforhodamine B assay; format: functional; settings: read-out: Activity

Row | Compound | growth at 1 µM
12 | CNC(=O)c1cc(Oc2ccc3nc(NC(=O)c4cc(C(F)(F)F)cc(C(F)(F)F)c4)sc3c2)ccn1 | 90%

test system: MDA-MB-435; experiment: Antiproliferative activity against human MDA-MB-435 cells assessed as growth inhibition after 48 hrs by sulforhodamine B assay; format: functional; settings: MDA-MB-435, 48 h

Row | Compound | GI50 | TGI
13 | CNC(=O)c1cc(Oc2ccc3nc(NC(=O)c4cc(C(F)(F)F)cc(C(F)(F)F)c4)sc3c2)ccn1 | 3.28 µM | 20.4 µM

same assay, conditions: MDA-MB-435, 48 h, read-out: LC50 (the source's name)

Row | Compound | CC50
14 | CNC(=O)c1cc(Oc2ccc3nc(NC(=O)c4cc(C(F)(F)F)cc(C(F)(F)F)c4)sc3c2)ccn1 | > 100 µM

test system: not listed separately; experiment: Antiproliferative activity against human SW620 cells assessed as cell growth at 10^-7 M after 48 hrs by sulforhodamine B assay; format: functional; settings: SW-620, 48 h, read-out: Activity

Row | Compound | growth at 0.1 µM
15 | CNC(=O)c1cc(Oc2ccc3nc(NC(=O)c4cc(C(F)(F)F)cc(C(F)(F)F)c4)sc3c2)ccn1 | 102%

test system: not listed separately; experiment: Antiproliferative activity against human SF539 cells assessed as cell growth at 10^-8 M after 48 hrs by sulforhodamine B assay; format: functional; settings: SF-539, 48 h, read-out: Activity

Row | Compound | growth at 0.01 µM
16 | CNC(=O)c1cc(Oc2ccc3nc(NC(=O)c4cc(C(F)(F)F)cc(C(F)(F)F)c4)sc3c2)ccn1 | 101%

test system: not listed separately; experiment: Antiproliferative activity against human UO31 cells assessed as growth inhibition after 48 hrs by sulforhodamine B assay; format: functional; settings: UO-31, 48 h

Row | Compound | GI50 | TGI
17 | CNC(=O)c1cc(Oc2ccc3nc(NC(=O)c4cc(C(F)(F)F)cc(C(F)(F)F)c4)sc3c2)ccn1 | 2.19 µM | 8.95 µM

same assay, conditions: UO-31, 48 h, read-out: LC50 (the source's name)

Row | Compound | CC50
18 | CNC(=O)c1cc(Oc2ccc3nc(NC(=O)c4cc(C(F)(F)F)cc(C(F)(F)F)c4)sc3c2)ccn1 | 97 µM

test system: not listed separately; experiment: Antiproliferative activity against human COLO205 cells assessed as cell growth at 10^-8 M after 48 hrs by sulforhodamine B assay; format: functional; settings: COLO 205, 48 h, read-out: Activity

Row | Compound | growth at 0.01 µM
19 | CNC(=O)c1cc(Oc2ccc3nc(NC(=O)c4cc(C(F)(F)F)cc(C(F)(F)F)c4)sc3c2)ccn1 | 99%

test system: not listed separately; experiment: Antiproliferative activity against human OVCAR5 cells assessed as cell growth at 10^-6 M after 48 hrs by sulforhodamine B assay; format: functional; settings: OVCAR-5, 48 h, read-out: Activity

Row | Compound | growth at 1 µM
20 | CNC(=O)c1cc(Oc2ccc3nc(NC(=O)c4cc(C(F)(F)F)cc(C(F)(F)F)c4)sc3c2)ccn1 | 80%

test system: not listed separately; experiment: Antiproliferative activity against human HCT116 cells assessed as cell growth at 10^-8 M after 48 hrs by sulforhodamine B assay; format: functional; settings: HCT-116, 48 h, read-out: Activity

Row | Compound | growth at 0.01 µM
21 | CNC(=O)c1cc(Oc2ccc3nc(NC(=O)c4cc(C(F)(F)F)cc(C(F)(F)F)c4)sc3c2)ccn1 | 111%
